# In paper PMC5359770 (ACS chemical biology, 2016):
# Key:
# APT2 = APT2 (Homo sapiens, UniProt O95372); assay type: binding
# [1] = cited from earlier work
# APT2-L78I = APT2-L78I (Homo sapiens, UniProt O95372, L78I); settings: ResOAc substrate
# [2] = target: APT2 triple mutant L78I/A85S/P86Q (Homo sapiens, UniProt O95372, A85S/L78I/P86Q); assay type: biochemical
# Sequence of APT2 triple mutant L78I/A85S/P86Q (O95372 whole entry L78I/A85S/P86Q): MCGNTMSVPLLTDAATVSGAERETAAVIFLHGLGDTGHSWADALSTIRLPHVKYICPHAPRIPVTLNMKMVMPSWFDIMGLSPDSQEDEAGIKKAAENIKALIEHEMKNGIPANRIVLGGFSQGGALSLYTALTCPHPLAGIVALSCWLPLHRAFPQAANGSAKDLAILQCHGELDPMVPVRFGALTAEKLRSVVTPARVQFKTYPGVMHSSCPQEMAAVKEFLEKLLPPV
# Sequence of APT2 (O95372 whole entry): as the sequence (O95372 whole entry L78I/A85S/P86Q) above, with I78L, S85A, Q86P counted along it
# Sequence of APT2-L78I (O95372 whole entry L78I): as the sequence (O95372 whole entry L78I/A85S/P86Q) above, with S85A, Q86P counted along it
molecule,measurement,setting,value
CCCCCCCC/C=C\CCCCCCCC(=O)OC[C@@H](O)COP(=O)([O-])OCC[N+](C)(C)C [1-oleoyl-2-hydroxy-sn-glycero-3-phosphocholine],IC50,APT2,4.3 ± 0.4 µM
COc1ccc(N2CCN(C(=O)c3cc4c(s3)-c3ccccc3[S+]([O-])C4)CC2)cc1 (stereo not drawn) [ML349-sulfoxide],binding / inhibition of APT2 (in words),APT2,some residual inhibition
CCCCCCCC/C=C\CCCCCCCC(=O)O [oleic acid],critical micelle concentration (CMC),[1],6 µM
same,IC50,APT2,9.9 ± 0.6 µM
ML348,Ki,APT2-L78I,5.8 µM
same,potency (in words),[2],improved ML348 potency
